# Where two headings read alike, the source gives them in different places.
# System: hiPSC-CMs (iCell-Cardiomyocytes^2)
# How it was run: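 Monolayers of hiPSC-CMs on fibronectin-coated MEA plates, 50 K/well, kept at 37°C, 5% CO2; compounds added in 0.1% final DMSO after 5-min baseline. Field potential and impedance parameters expressed as mean ± SD percent change from baseline; arrhythmic events noted; cytotoxicity fluorescence normalized to DMSO, Kruskal-Wallis.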
structure (smiles),measurement,setting,value
C#Cc1cccc(Nc2ncnc3cc(OCCOC)c(OCCOC)cc23)c1 [Erlotinib],BR (beat rate) % change from baseline,"0.3 µM, 2h",3±3%
same,"Beating below threshold, number of observations/total well numbers","0.3 µM, 2h",0/5
same,"Cessation of beating, number of observations/total well numbers","0.3 µM, 2h",0/5
same,"EAD, number of observations/total well numbers","0.3 µM, 2h",0/5
same,"FPD (field-potential duration), % change from baseline","0.3 µM, 2h",0.6±0.9%
same,"FPDc (field-potential duration corrected by beat-rate), % change from baseline","0.3 µM, 2h",1.6±1.1%
same,"Flat T-wave-like, number of observations/total well numbers","0.3 µM, 2h",0/5
same,BR (beat rate) % change from baseline,"0.3 µM, 24h",-1±5%
same,"Beating below threshold, number of observations/total well numbers","0.3 µM, 24h",0/5
same,"Cessation of beating, number of observations/total well numbers","0.3 µM, 24h",0/5
same,"EAD, number of observations/total well numbers","0.3 µM, 24h",0/5
same,"FPD (field-potential duration), % change from baseline","0.3 µM, 24h",7.8±3.3%
same,"FPDc (field-potential duration corrected by beat-rate), % change from baseline","0.3 µM, 24h",7.4±1.9%
same,"Flat T-wave-like, number of observations/total well numbers","0.3 µM, 24h",0/5
same,BR (beat rate) % change from baseline,"0.3 µM, 48h",-12±1%
same,"Beating below threshold, number of observations/total well numbers","0.3 µM, 48h",0/5
same,"Cessation of beating, number of observations/total well numbers","0.3 µM, 48h",0/5
same,"EAD, number of observations/total well numbers","0.3 µM, 48h",0/5
same,"FPD (field-potential duration), % change from baseline","0.3 µM, 48h",16.2±1.3%
same,"FPDc (field-potential duration corrected by beat-rate), % change from baseline","0.3 µM, 48h",11.5±0.7%
same,"Flat T-wave-like, number of observations/total well numbers","0.3 µM, 48h",0/5
same,BR (beat rate) % change from baseline,"0.3 µM, 72h",-8±2%
same,"Beating below threshold, number of observations/total well numbers","0.3 µM, 72h",0/5
same,"Cessation of beating, number of observations/total well numbers","0.3 µM, 72h",0/5
same,"EAD, number of observations/total well numbers","0.3 µM, 72h",0/5
same,"FPD (field-potential duration), % change from baseline","0.3 µM, 72h",14.6±3.1%
same,"FPDc (field-potential duration corrected by beat-rate), % change from baseline","0.3 µM, 72h",11.4±2.8%
same,"Flat T-wave-like, number of observations/total well numbers","0.3 µM, 72h",0/5
same,BR (beat rate) % change from baseline,"0.3 µM, 96h",-14±1%
same,"Beating below threshold, number of observations/total well numbers","0.3 µM, 96h",0/5
same,"Cessation of beating, number of observations/total well numbers","0.3 µM, 96h",0/5
same,"EAD, number of observations/total well numbers","0.3 µM, 96h",0/5
same,"FPD (field-potential duration), % change from baseline","0.3 µM, 96h",21.2±1.9%
same,"FPDc (field-potential duration corrected by beat-rate), % change from baseline","0.3 µM, 96h",15.1±1.6%
same,"Flat T-wave-like, number of observations/total well numbers","0.3 µM, 96h",0/5
same,BR (beat rate) % change from baseline,"1 µM, 2h",1±1%
same,"Beating below threshold, number of observations/total well numbers","1 µM, 2h",0/5
same,"Cessation of beating, number of observations/total well numbers","1 µM, 2h",0/5
same,"EAD, number of observations/total well numbers","1 µM, 2h",0/5
same,"FPD (field-potential duration), % change from baseline","1 µM, 2h",3.4±1%
same,"FPDc (field-potential duration corrected by beat-rate), % change from baseline","1 µM, 2h",3.8±0.8%
same,"Flat T-wave-like, number of observations/total well numbers","1 µM, 2h",0/5
same,BR (beat rate) % change from baseline,"1 µM, 24h",0±5%
same,"Beating below threshold, number of observations/total well numbers","1 µM, 24h",0/5
same,"Cessation of beating, number of observations/total well numbers","1 µM, 24h",0/5
same,"EAD, number of observations/total well numbers","1 µM, 24h",0/5
same,"FPD (field-potential duration), % change from baseline","1 µM, 24h",5.5±5.8%
same,"FPDc (field-potential duration corrected by beat-rate), % change from baseline","1 µM, 24h",5.6±4%
same,"Flat T-wave-like, number of observations/total well numbers","1 µM, 24h",0/5
same,BR (beat rate) % change from baseline,"1 µM, 48h",-13±3%
same,"Beating below threshold, number of observations/total well numbers","1 µM, 48h",0/5
same,"Cessation of beating, number of observations/total well numbers","1 µM, 48h",0/5
same,"EAD, number of observations/total well numbers","1 µM, 48h",0/5
same,"FPD (field-potential duration), % change from baseline","1 µM, 48h",16.6±3.6%
same,"FPDc (field-potential duration corrected by beat-rate), % change from baseline","1 µM, 48h",11.3±2.2%
same,"Flat T-wave-like, number of observations/total well numbers","1 µM, 48h",0/5
same,BR (beat rate) % change from baseline,"1 µM, 72h",-9±2%
same,"Beating below threshold, number of observations/total well numbers","1 µM, 72h",0/5
same,"Cessation of beating, number of observations/total well numbers","1 µM, 72h",0/5
same,"EAD, number of observations/total well numbers","1 µM, 72h",0/5
same,"FPD (field-potential duration), % change from baseline","1 µM, 72h",14.7±3.9%
same,"FPDc (field-potential duration corrected by beat-rate), % change from baseline","1 µM, 72h",11±3.3%
same,"Flat T-wave-like, number of observations/total well numbers","1 µM, 72h",0/5
same,BR (beat rate) % change from baseline,"1 µM, 96h",-16±2%
same,"Beating below threshold, number of observations/total well numbers","1 µM, 96h",0/5
same,"Cessation of beating, number of observations/total well numbers","1 µM, 96h",0/5
same,"EAD, number of observations/total well numbers","1 µM, 96h",0/5
same,"FPD (field-potential duration), % change from baseline","1 µM, 96h",22.4±3.5%
same,"FPDc (field-potential duration corrected by beat-rate), % change from baseline","1 µM, 96h",15.1±2.5%
same,"Flat T-wave-like, number of observations/total well numbers","1 µM, 96h",0/5
same,BR (beat rate) % change from baseline,"3 µM, 72h",-10±2%
same,"Beating below threshold, number of observations/total well numbers","3 µM, 72h",0/5
same,"Cessation of beating, number of observations/total well numbers","3 µM, 72h",0/5
same,"EAD, number of observations/total well numbers","3 µM, 72h",0/5
same,"FPD (field-potential duration), % change from baseline","3 µM, 72h",10.9±3.3%
same,"FPDc (field-potential duration corrected by beat-rate), % change from baseline","3 µM, 72h",7.1±2.8%
same,"Flat T-wave-like, number of observations/total well numbers","3 µM, 72h",0/5
same,BR (beat rate) % change from baseline,"3 µM, 96h",-18±2%
same,"Beating below threshold, number of observations/total well numbers","3 µM, 96h",0/5
same,"Cessation of beating, number of observations/total well numbers","3 µM, 96h",0/5
same,"EAD, number of observations/total well numbers","3 µM, 96h",0/5
same,"FPD (field-potential duration), % change from baseline","3 µM, 96h",18.9±1.9%
same,"FPDc (field-potential duration corrected by beat-rate), % change from baseline","3 µM, 96h",11.7±1.1%
same,"Flat T-wave-like, number of observations/total well numbers","3 µM, 96h",0/5
same,BR (beat rate) % change from baseline,"3 µM, 2h",1±2%
same,"Beating below threshold, number of observations/total well numbers","3 µM, 2h",0/5
same,"Cessation of beating, number of observations/total well numbers","3 µM, 2h",0/5
same,"EAD, number of observations/total well numbers","3 µM, 2h",0/5
same,"FPD (field-potential duration), % change from baseline","3 µM, 2h",2±3%
same,"FPDc (field-potential duration corrected by beat-rate), % change from baseline","3 µM, 2h",2.4±2.4%
same,"Flat T-wave-like, number of observations/total well numbers","3 µM, 2h",0/5
same,BR (beat rate) % change from baseline,"3 µM, 24h",2±3%
same,"Beating below threshold, number of observations/total well numbers","3 µM, 24h",0/5
same,"Cessation of beating, number of observations/total well numbers","3 µM, 24h",0/5
same,"EAD, number of observations/total well numbers","3 µM, 24h",0/5
same,"FPD (field-potential duration), % change from baseline","3 µM, 24h",0.1±4%
same,"FPDc (field-potential duration corrected by beat-rate), % change from baseline","3 µM, 24h",0.7±3%
same,"Flat T-wave-like, number of observations/total well numbers","3 µM, 24h",0/5
same,BR (beat rate) % change from baseline,"3 µM, 48h",-13±3%
same,"Beating below threshold, number of observations/total well numbers","3 µM, 48h",0/5
same,"Cessation of beating, number of observations/total well numbers","3 µM, 48h",0/5
same,"EAD, number of observations/total well numbers","3 µM, 48h",0/5
same,"FPD (field-potential duration), % change from baseline","3 µM, 48h",11±2.4%
same,"FPDc (field-potential duration corrected by beat-rate), % change from baseline","3 µM, 48h",5.9±1.1%
same,"Flat T-wave-like, number of observations/total well numbers","3 µM, 48h",0/5
same,wells with flat T-wave,10 µM (highest concentration),One well on 5
same,BR (beat rate) % change from baseline,"10 µM, 2h",1±1%
same,"Beating below threshold, number of observations/total well numbers","10 µM, 2h",0/5
same,"Cessation of beating, number of observations/total well numbers","10 µM, 2h",0/5
same,"EAD, number of observations/total well numbers","10 µM, 2h",0/5
same,"FPD (field-potential duration), % change from baseline","10 µM, 2h",3.5±0.9%
same,"FPDc (field-potential duration corrected by beat-rate), % change from baseline","10 µM, 2h",3.9±1.1%
same,"Flat T-wave-like, number of observations/total well numbers","10 µM, 2h",0/5
same,BR (beat rate) % change from baseline,"10 µM, 24h",-1±7%
same,"Beating below threshold, number of observations/total well numbers","10 µM, 24h",0/5
same,"Cessation of beating, number of observations/total well numbers","10 µM, 24h",0/5
same,"EAD, number of observations/total well numbers","10 µM, 24h",0/5
same,"FPD (field-potential duration), % change from baseline","10 µM, 24h",7.2±5.8%
same,"FPDc (field-potential duration corrected by beat-rate), % change from baseline","10 µM, 24h",6.3±4.1%
same,"Flat T-wave-like, number of observations/total well numbers","10 µM, 24h",1/5
same,BR (beat rate) % change from baseline,"10 µM, 48h",-15±4%
same,"Beating below threshold, number of observations/total well numbers","10 µM, 48h",0/5
same,"Cessation of beating, number of observations/total well numbers","10 µM, 48h",0/5
same,"EAD, number of observations/total well numbers","10 µM, 48h",0/5
same,"FPD (field-potential duration), % change from baseline","10 µM, 48h",15.4±2.7%
same,"FPDc (field-potential duration corrected by beat-rate), % change from baseline","10 µM, 48h",8.7±1.6%
same,"Flat T-wave-like, number of observations/total well numbers","10 µM, 48h",1/5
same,BR (beat rate) % change from baseline,"10 µM, 72h",-13±4%
same,"Beating below threshold, number of observations/total well numbers","10 µM, 72h",0/5
same,"Cessation of beating, number of observations/total well numbers","10 µM, 72h",0/5
same,"EAD, number of observations/total well numbers","10 µM, 72h",0/5
same,"FPD (field-potential duration), % change from baseline","10 µM, 72h",16.4±6.7%
same,"FPDc (field-potential duration corrected by beat-rate), % change from baseline","10 µM, 72h",10.6±6%
same,"Flat T-wave-like, number of observations/total well numbers","10 µM, 72h",1/5
same,BR (beat rate) % change from baseline,"10 µM, 96h",-19±2%
same,"Beating below threshold, number of observations/total well numbers","10 µM, 96h",0/5
same,"Cessation of beating, number of observations/total well numbers","10 µM, 96h",0/5
same,"EAD, number of observations/total well numbers","10 µM, 96h",0/5
same,"FPD (field-potential duration), % change from baseline","10 µM, 96h",25±8.1%
same,"FPDc (field-potential duration corrected by beat-rate), % change from baseline","10 µM, 96h",16±6.6%
same,"Flat T-wave-like, number of observations/total well numbers","10 µM, 96h",1/5
same,arrhythmic-like events,all concentrations tested,no arrhythmic-like events were observed
same,changes in BR,all concentrations tested,nor significant changes in BR
same,prolongation of FPD / FPDc,all concentrations tested,did not observe any physiologically relevant prolongation in FPD and FPDc
same,effect on hiPSC-CMs electrophysiology or cytotoxicity,up to ∼ three times the estimated fCmax,did not detect any significant effect on hiPSC-CMs electrophysiology or cytotoxicity

# From article PMC10364322, “Evaluation of chronic drug-induced electrophysiological and cytotoxic effects using human-induced pluripotent stem cell-derived cardiomyocytes (hiPSC-CMs)” (Frontiers in Pharmacology, 2023)
